1 compound from article PMC12281487, “Discovery and Validation of a Novel Class of Necroptosis Inhibitors Targeting RIPK1” (ACS Chemical Biology, 2025) can be followed below.

Test [1] addresses T1, recombinant hRIPK1 (Homo sapiens, UniProt Q13546).
T1 construct: Th (between GST and residue 1); purchased BPS Bioscience 40371
T1 sequence (Q13546 1-327): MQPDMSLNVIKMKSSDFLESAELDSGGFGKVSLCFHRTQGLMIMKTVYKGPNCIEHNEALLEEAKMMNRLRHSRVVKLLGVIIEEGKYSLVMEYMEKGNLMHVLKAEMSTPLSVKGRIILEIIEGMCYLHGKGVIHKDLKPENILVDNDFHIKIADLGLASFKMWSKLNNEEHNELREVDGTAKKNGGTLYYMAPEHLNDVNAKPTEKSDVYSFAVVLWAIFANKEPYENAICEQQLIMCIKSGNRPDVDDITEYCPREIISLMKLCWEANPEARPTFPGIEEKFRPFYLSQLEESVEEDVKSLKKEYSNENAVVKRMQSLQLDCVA
Put plainly: ADP-Glo kinase assay. The class given is biochemical. The following applies: for IC50: GST-RIPK1 75 nM. Here is the method:
Compound potency and mode of inhibition against RIPK1 kinase activity were determined by using an ADP-Glo kinase assay (Promega). The assay was carried out in accordance with the manufacturer’s protocol. The initial kinase reaction was performed by incubating recombinant hRIPK1 (GST-Th-1-327 from BPS Bioscience ref 40371, 75 nM) with the inhibitor (0–100 μM) and ATP (0–500 μM) for 4 h at 24 °C in kinase assay buffer (50 mM HEPES pH 7.5, 50 mM NaCl, 30 mM MgCl2, 0.5 mg mL^–1 BSA, 0.02% CHAPS, and 4 mM DTT). Following this reaction, ADP-Glo Reagent and Kinase Detection Reagent were successively added and incubated for 1 and 0.5 h at 24 °C, respectively. A […] (kinase assay reaction/ADP-Glo Reagent/Kinase Detection Reagent) volume ratio of the kit’s components was used. Bioluminescence was measured on a Varioskan LUX multimode microplate reader with SkanIt Software. Experiments were conducted in triplicate. Concentration response curves and IC50 values were generated from nonlinear regression fits performed on GraphPad Prism 9.1.1. Additionally, the produced ADP concentration values were divided by the kinase reaction incubation time to calculate reaction velocity values and generate velocity curves. Velocity curves were fitted in Michaelis–Menten model on GraphPad Prism 9.1.1 to calculate the maximum velocity (v max) and Michaelis–Menten constant (K M) parameters.

The target in test [2] is T2, RIPK1 (Homo sapiens, UniProt Q13546).
T2 construct: Following incubation of I2.1 cells with the probe, irradiation to induce photocrosslinking; endogenous in cells; host or cells: I2.1 FADD-deficient Jurkat T cells (ATCC, CRL-2572)
T2 sequence (Q13546 1-671): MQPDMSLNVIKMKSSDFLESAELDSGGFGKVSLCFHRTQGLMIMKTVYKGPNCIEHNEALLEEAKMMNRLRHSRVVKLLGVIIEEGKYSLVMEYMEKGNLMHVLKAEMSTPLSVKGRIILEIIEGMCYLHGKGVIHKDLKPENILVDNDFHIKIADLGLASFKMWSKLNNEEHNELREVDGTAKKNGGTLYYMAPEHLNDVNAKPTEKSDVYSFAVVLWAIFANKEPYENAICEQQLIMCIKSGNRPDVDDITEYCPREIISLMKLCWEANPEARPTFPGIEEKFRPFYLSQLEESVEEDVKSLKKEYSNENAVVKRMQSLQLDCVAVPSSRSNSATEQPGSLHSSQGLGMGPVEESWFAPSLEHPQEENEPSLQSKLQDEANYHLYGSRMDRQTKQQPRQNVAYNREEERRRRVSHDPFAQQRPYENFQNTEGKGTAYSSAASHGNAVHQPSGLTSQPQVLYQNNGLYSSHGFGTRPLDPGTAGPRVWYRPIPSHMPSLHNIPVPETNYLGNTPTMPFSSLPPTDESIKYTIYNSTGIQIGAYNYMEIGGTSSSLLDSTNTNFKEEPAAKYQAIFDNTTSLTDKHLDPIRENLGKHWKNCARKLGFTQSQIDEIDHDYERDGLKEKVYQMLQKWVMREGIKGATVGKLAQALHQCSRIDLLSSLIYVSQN
Put plainly: Streptavidin mass shift assay (photoaffinity labeling, target engagement) in I2.1 cells. Format: cell-based. The conditions noted are these: competition assay, pretreatment before 7PQYnD photoaffinity labeling.
Procedure: Target engagement was confirmed by Streptavidin mass shift assay, whereby lysates are incubated with streptavidin and subsequently separated by SDS–PAGE. The high stability of streptavidin at a range of temperatures, in various detergents and pH, in combination with the extremely high affinity for biotin means the streptavidin–biotin interaction is not separated during gel electrophoresis, resulting in a mass shift of biotin-labeled proteins in the presence of streptavidin, which can be visualized by Western blot (Figure a).
I2.1 cells were seeded in sterile six-well plates at a density of 2 × 10^6 cells per well and incubated at 37 °C overnight. 1000× stocks of the desired concentration of compound in DMSO were preprepared. […]
Cells were transferred to a microcentrifuge tube, centrifuged at 200g for 5 min, and media removed. […] Protein concentration was determined using the DC Protein Assay (Bio-Rad) in a 96-well plate as per the manufacturer’s instructions and the concentration adjusted to 1–2 mg mL^–1 using lysis buffer. […]
Samples were prepared by adding 4 μL of 4× loading buffer to 10 μL of the protein samples and boiling at 95 °C for 10 min. […] In-gel fluorescence was detected by using a Typhoon FLA 9500 biomolecular imager (750 V, 100 μm pixels). […]

Test [3] concerns C57BL/6J mice. Put plainly: TNF-induced SIRS murine model. The following applies: 5 mg/kg i.v. 15 min before TNF 0.5 mg/kg i.v., 3 mice per group.
Procedure: Male C57BL/6J mice of 18–25 g were used at the age of 6–8 weeks. Three animals were included in each experimental group. All animal experiments were carried out with the permission of the local animal ethical committee in accordance with the EU Directive (2010/63/EU), Portuguese laws (DL113/2013, 2880/2015, 260/2016), and all relevant legislations. Animals received humane care in a temperature-controlled environment with a 12 h light–dark cycle and ad libitum access to pelleted chow and water, complying with the Institute’s guidelines, and as outlined in the “Guide for the Care and Use of Laboratory Animals” prepared by the National Academy of Sciences and published by the National Institutes of Health (NIH publication 86-23 revised 1985). […] TNF was diluted in sterile PBS. […] All injections were administered intravenously (i.v.).
The test system of test [4] is I2.1 FADD–/– human Jurkat cells. As to the kind of experiment: IncuCyte necroptosis assay in I2.1 cells. The following applies: Homo sapiens, Jurkat, read-out: EC50 (95% CI), necroptosis inhibition.
Procedure: A cell-based assay was established to monitor necroptosis in I2.1 cells using the IncuCyte S3 live cell microscopy platform (Figure S1a). Necroptosis was induced by treatment with TNF, and Sytox Green was used to monitor membrane permeabilization over time as an indicator of progressive necroptotic cell death (Figure S1b–d), allowing determination of the EC50 of candidate necroptosis inhibitors.
I2.1 cells were seeded in a sterile 96-well plate (Greiner) at 20,000 cells per well and incubated at 37 °C overnight. The cells were treated with a final concentration of 600 pM TNF, 1 μM Sytox Green, and compounds in a dose-dependent manner. Wells containing TNF and Sytox Green served as positive control. Wells containing DMSO and Sytox Green served as a negative control. The plate was placed into an IncuCyte S3 Live Cell Analysis System (Sartorius) and readings for phase and green fluorescence were taken every hour for 24 h, with 4 images per well. The images were analyzed with IncuCyte 2021C software and the Green Integrated Intensity Per Image/Phase Area Per Image (GCU × μm^2/image/μm^2/image or GP) was exported. The background at t = 0 h was subtracted, and the linear slope (t = 3–7 h) was calculated by plotting GP against time. The percent inhibition of necroptosis was determined by normalizing to the positive and negative controls and graphing against the [compound]. EC50 values were determined using Prism 10 for each replicate, which were then used to calculate the geometric mean EC50 and associated 95% CIs.
I2.1 cells in a 96-well plate were treated with TNF to induce necroptosis, a dilution series of the candidate necroptosis inhibitor and Sytox Green to monitor cell death. Plates were placed in the IncuCyte® and imaged every hour for 24 h. Cell death was measured over time and used to determine the proportion of necroptotic cells compared to those without necroptosis induction or not treated with an inhibitor. The linear portion of the graph was used to determine an initial rate for calculation of the EC50. TNF with Sytox Green and Sytox Green alone were used as positive and negative controls, respectively. […] EC50 values are expressed as the geometric mean with a 95% confidence interval (CI) of at least three biological replicates.

By IC50 is commonly meant the midpoint of a concentration-inhibition curve. In general, EC50 refers to the concentration needed to bring the measured effect to its halfway point.

The structures appear in SMILES notation.

Regarding `CN1C(=O)C(Cc2c[nH]c3ccccc23)NC1=S` (stereo not drawn) [Nec-1, Necrostatin 1], the 50% inhibitory concentration (IC50) in test [1] (ATP concentration 10 μM) is 2700 nM; in test [1] (ATP concentration 500 μM), 8100 nM. The “mode of inhibition with respect to ATP” value in test [1] (ATP concentrations 10–500 μM) was “competition with ATP”. For the same compound, in test [2], the “7PQYnD-mediated RIPK1 streptavidin band shift after pretreatment with competitor” value is given as “retained”. The “protection from TNF-induced mortality (survival)” value in test [3] was “partially protected”. Besides, in test [4], the concentration giving a half-maximal response (EC50) came out at 750 nM.
